The source of these data is patent US10183949B2, “Pyrimidinone derivative having autotaxin-inhibitory activity” (The University of Tokyo, priority 2014, dated 2019).

pIC50: −log10 of the molar value. Some results are limits rather than exact numbers.

For orientation: pIC50 means the IC50 on a negative log10 scale, so that one unit is a factor of ten.

The experiment addresses T1, Human autotaxin enzyme (Homo sapiens, UniProt Q13822).
T1 construct: purchased R&D System
In words: Evaluation of autotaxin inhibitor, 18:0 Lyso PC / choline assay (Test Example 2). Format: biochemical. The note with it: human autotaxin enzyme, 18:0 Lyso PC substrate, choline assay, room temperature 2 hours; read-out: Inhibitor activity (IC50). As to the method: Solution B containing 100 mM Tris-HCl buffer (pH7.5), 150 mM NaCl, 5 mM MgCl2, and 0.05% Triton X-100 was prepared. Human autotaxin enzyme (purchased from R&D System) was diluted with Solution B, and 2.5 μl of which was added to a solution of test compound in DMSO. Furthermore, 2.5 μl of 200 μM 18:0 Lyso PC (purchased from Avanti Polar Lipids) in Solution B was added and allowed to react at room temperature for 2 hours. After completion of the reaction, 15 μl of the coline assay reagent. (100 mM Tris-HCl buffer (pH7.5), 5 mM. MgCl2, 77 μg/ml coline oxidase, 10 μg/ml peroxydase, 25μM 10-acetyl-3,7-dihydroxyphenoxazine, and excess autotaxin inhibitor) was added and allowed to react at room temperature for 20 minutes. The fluorescent dye Resorufin, which was produced by the reaction, was detected. The fluorescence was detected using ViewLux
(PerkinElmer, Inc.) with a excitation wavelength of 531 nm and a fluorescence wavelength of 598 nm.
The percent inhibition of the test compound was calculated by assuming the sample with no test compound as 0% inhibition and the sample with no enzyme as 100% inhibition, and the percent inhibitions at different concentrations of the test compound were plotted to obtain a concentration-dependent curve.
As for `CCCCCc1nc(-c2ccc(Cl)cc2)cc(=O)n1CC(=O)N1CCOC[C@H]1C(=O)O` [Compound I-0067], the negative logarithm of the IC50 (pIC50) was 6.00 to 7.00.
Consider `CCCCCc1nc(-c2ccc(Cl)cc2)cc(=O)n1CC(=O)N1CCCC1C(=O)O` (stereo not shown) [Compound I-0068], for which the negative logarithm of the IC50 (pIC50) is at most 6.00.
With `CCCCCc1nc(-c2ccc(Cl)cc2)cc(=O)n1CC(=O)NC1(C(=O)O)CC1` [Compound I-0069], the pIC50 was 7.00 to 8.00.
`CCCCCc1nc(-c2ccc(Cl)cc2)cc(=O)n1CC(=O)NCC(C)(C)C(=O)O` [Compound I-0070]: the pIC50 was over 8.00.
For the compound `CCCCCc1nc(-c2ccc(Cl)cc2)cc(=O)n1CC(=O)N[C@H]1C[C@H](C(=O)O)C1` [Compound I-0071], the pIC50 is over 8.00.
Take `CCCCCc1nc(-c2ccc(Cl)cc2)cc(=O)n1CC(=O)NC12CCC(C(=O)O)(CC1)CC2` [Compound I-0072]: the pIC50 is over 8.00.
With `CCCCCc1nc(-c2ccc(Cl)cc2)cc(=O)n1CC(=O)NC1(C(=O)O)CCC1` [Compound I-0073] the figure was over 8.00.
For the compound `CCCCCc1nc(-c2ccc(Cl)cc2)cc(=O)n1Cc1cccc(C(=O)OC)c1` [Compound I-0074], the negative logarithm of the IC50 (pIC50) was at most 6.00.
In the case of `CCCCCc1nc(-c2ccc(Cl)cc2)cc(=O)n1CC(=O)NC(CO)Cc1ccc(F)cc1` (stereo not shown) [Compound I-0075], the pIC50 is at most 6.00.
For `CCCCCc1nc(-c2ccc(Cl)cc2)cc(=O)n1CC(=O)N1CCOCC1c1ccccc1` (stereo not shown) [Compound I-0076], the pIC50 is 6.00 to 7.00.
Consider `CCCCCc1nc(-c2ccc(Cl)cc2)cc(=O)n1CC(=O)NC1(C#N)CCCCC1` [Compound I-0077], for which the negative-log IC50 (pIC50) is 6.00 to 7.00.
In the case of `CCCCCc1nc(-c2ccc(Cl)cc2)cc(=O)n1CC(=O)N[C@@H]1CN2CCC1CC2` [Compound I-0078], the pIC50 is at most 6.00.
With `CCCCCc1nc(-c2ccc(Cl)cc2)cc(=O)n1CC(=O)NC(C)CC#N` (stereo not shown) [Compound I-0079] the figure was 7.00 to 8.00; with `CCCCCc1nc(-c2ccc(Cl)cc2)cc(=O)n1CC(=O)NCCC#N` [Compound I-0080], 7.00 to 8.00; with `CCCCCc1nc(-c2ccc(Cl)cc2)cc(=O)n1CC(=O)NC1CCS(=O)(=O)C1` (stereo not shown) [Compound I-0081], 7.00 to 8.00.
Regarding `CCCCCc1nc(-c2ccc(Cl)cc2)cc(=O)n1CC(=O)NC1CCCNC1=O` (stereo not shown) [Compound I-0082], the pIC50 is 6.00 to 7.00.
As for `CCCCCc1nc(-c2ccc(Cl)cc2)cc(=O)n1CC(=O)Nc1ncc(C#N)s1` [Compound I-0083], the pIC50 was at most 6.00.
Then `CCCCCc1nc(-c2ccc(Cl)cc2)cc(=O)n1CC(=O)N1CCOCC1` [Compound I-0084], with 7.00 to 8.00.
As to `CCCCCc1nc(-c2ccc(Cl)cc2)cc(=O)n1CC(=O)NCC#N` [Compound I-0085], the pIC50 was 7.00 to 8.00.
On to `CCCCCc1nc(-c2ccc(Cl)cc2)cc(=O)n1CC(=O)NC1CCOCC1` [Compound I-0086], for which the negative-log IC50 (pIC50) is 6.00 to 7.00.
For `CCCCCc1nc(-c2ccc(Cl)cc2)cc(=O)n1CC(=O)N1CCC(F)(F)CC1` [Compound I-0087], the pIC50 is 7.00 to 8.00.
As to `CCCCCc1nc(-c2ccc(Cl)cc2)cc(=O)n1CC(=O)NCC(O)Cc1ccccc1` (stereo not shown) [Compound I-0088], the pIC50 was 7.00 to 8.00.
For the compound `CCCCCc1nc(-c2ccc(Cl)cc2)cc(=O)n1CC(=O)NC1(c2cccnc2)CC1` [Compound I-0089], the pIC50 is 7.00 to 8.00.
Regarding `CCCCCc1nc(-c2ccc(Cl)cc2)cc(=O)n1CC(=O)NC1(C#N)CC1` [Compound I-0090], the pIC50 is 7.00 to 8.00.
In the case of `CCCCCc1nc(-c2ccc(Cl)cc2)cc(=O)n1CC(=O)N1CC2(COC2)C1` [Compound I-0091], the pIC50 is at most 6.00.
In the case of `CCCCCc1nc(-c2ccc(Cl)cc2)cc(=O)n1CC(=O)N[C@@H](CO)Cc1ccccc1` [Compound I-0092], the pIC50 was 6.00 to 7.00.
Take `CCCCCc1nc(-c2ccc(Cl)cc2)cc(=O)n1CC(=O)NC1CCS(=O)(=O)CC1` [Compound I-0093]: the pIC50 is 7.00 to 8.00.
As for `CCCCCc1nc(-c2ccc(Cl)cc2)cc(=O)n1CC(=O)NCCS(C)(=O)=O` [Compound I-0094], the pIC50 is 7.00 to 8.00.
